Laboratory results taken from patent US20220125753A1, “COMPOSITIONS AND METHODS FOR TREATING ISCHEMIC STROKE” (The General Hospital Corporation, priority 2015, published 2022).
Entries after “also recorded” stand apart in the source; their conditions may differ. Where two headings read alike, the source gives them in different places.

How the values were obtained:
[1] = cited from earlier work
[2] = for maximum plasma concentration / time of maximum plasma concentration: mean ± spread
Aß amyloid peptide [3] = assay: In vitro assays of Aß amyloid peptide polymerization into oligomers and aggregates; format: biochemical; conditions: at nanomolar concentrations
Experimental: One of the most routinely used approaches to monitor Aβ polymerization is the thioflavin T binding assay (Elmaleh, 2014; Hori, 2015). […] AO peptide at 5 μM was mixed with 10 μM thioflavin T with drug at different concentrations.
Fibrillization of synthetic Aß40 (left column) or Aß42 (right column) peptides was followed over 1 hour.

[4] = tested on: unilateral hypoxia-ischemia in neonatal rats; conditions: given at the end of the hypoxic period, assessed at 48 hours; cited from earlier work
[5] = tested on: experimental cerebral ischemia/reperfusion; conditions: cited from earlier work
[6] = tested on: transient middle cerebral artery occlusion; conditions: adult rats; intracerebral injection; cited from earlier work
clinical = conditions: human, in vivo, inhaled or intranasal, AUC (plasma)
[7] = tested on: hemorrhage formation after tPa treatment; conditions: adult rats; intracerebral injection; cited from earlier work
Aß amyloid peptide [8] = conditions: at nanomolar concentrations; laboratory testing (Hori 2015; Elmaleh 2014); cited from earlier work
microglial cells = assay: Microglia culture incubated with synthetic Aß40 or Aß42, Aß ELISA of media; format: cell-based; conditions: 0.10 nM, 10 μM or 1 mM Cromolyn Sodium, 16 hours
Experimental: After the incubation, the concentrations of […]-42 (right panel) in media were measured using Aß ELISA and normalized with microglia cell number and according to the PBS control condition. (n=3 experiments; *, P<0.05, **, P<0.01)

APP/PS1 mice [9] = assay: Immunostaining of Aß and microglial marker Iba1 in brain sections; format: in vivo; conditions: 3.15 mg/kg daily for seven days vs PBS
APP/PS1 mice [10] = assay: Short-term treatment of APP/PS1 mice, TBS soluble Aß in brain (ELISA, immunoblotting); format: in vivo; conditions: after 1 week of peripherally administered cromolyn sodium (intraperitoneally daily), 7.5 months old APP/PS1 mice
Experimental: One week after daily injection, tris-buffered saline (TBS) soluble Aßx-40 (left graph) and Aßx-42 (right graph) were measured under the condition with (black bar) or without (white bar) pre-incubation with guanidine (Gdn)-HCl using Aß ELISA. The value under the incubation with Gdn-HCl show the concentration of total TBS soluble Aß, and the value under the no incubation with Gdn-HCl show the concentration of monomeric Aß. FIG. 5B: oligomeric Aß in TBS soluble brain extracts were measured using 82E1/82E1 Aß oligomer specific ELISA. FIG. 5C illustrates representative immunoblotting of TBS soluble brain extracts with anti-Aß antibody (6E10 and 82E1) (left panel). The densitometry of monomeric Aß was quantified (right graph). (n=3-5/group; *, P<0.05, **, P<0.01).

[11] = 34.2 mg double inhaled dose, range

## O=C([O-])c1cc(=O)c2c(OCC(O)COc3cccc4oc(C(=O)[O-])cc(=O)c34)cccc2o1.[Na+].[Na+] [Cromolyn]
[1]
  variability of plasma levels following inhalation: high intraand inter-subject variability
[1]; inhalation, compared with healthy volunteers
  cromolyn uptake by asthmatics: lower than by healthy volunteers
[2]; 17.1 mg single inhaled dose, healthy volunteers
  maximum plasma concentration: 47.1 ± 33.6 ng/mL
[2]; 17.1 mg single inhaled dose
  time of maximum plasma concentration: 23.3 ± 16.9 min
[2]; 17.1 mg single inhaled dose, range
  time of maximum plasma concentration, range: 5 to 60 min
[2]; 17.1 mg single inhaled dose, range over subjects
  maximum plasma concentration, range: 14.0 to 133 ng/mL
[2]; 34.2 mg double inhaled dose
  maximum plasma concentration: 95.0 ± 45.5 ng/mL
  time of maximum plasma concentration: 22.2 ± 19.4 min
[2]; [11]
  maximum plasma concentration, range: 36.1 to 236 ng/mL
  time of maximum plasma concentration, range: 5 to 60 min
Aß amyloid peptide [3]
  inhibition of Aß aggregation / polymerization into oligomers and higher order aggregates: inhibition; also recorded: effectively inhibits
[4]
  glial activation: limited
  mast cell migration/degranulation: limited
  neuronal loss: limited
[5]
  survival of experimental animals: improved survival
[6]
  neutrophil accumulation: reduced
clinical; 17.1 mg, 17.1 mg single dose inhalation, mean ± spread
  AUC: 148 ± 67.1 ng·h/mL
clinical; 17.1 mg, range, 17.1 mg single dose inhalation
  AUC: 44.7 to 287 ng·h/mL
clinical; 34.2 mg, 34.2 mg double dose inhalation, mean ± spread
  AUC: 254 ± 93.8 ng·h/mL
clinical; 34.2 mg, range, 34.2 mg double dose inhalation
  AUC: 122 to 443 ng·h/mL
[7]
  hemorrhage formation after tPa treatment: inhibited
Aß amyloid peptide [8]
  binding to and inhibition of amyloid β (Aβ) peptide oligomerization: bind to and inhibit

## O=C(O)c1cc(=O)c2c(OCC(O)COc3cccc4oc(C(=O)O)cc(=O)c34)cccc2o1 [cromolyn sodium]
Microglial cells; 50 nM synthetic Aß40
  Aß40 levels in media of microglia culture: dose-dependent decrease
Microglial cells; 50 nM synthetic Aß42
  Aß42 levels in media of microglia culture: dose-dependent decrease
APP/PS1 mice [9]
  percentage of Iba1 immunoreactivity overlapping with amyloid: higher percentage
APP/PS1 mice [9]; listed as Cromolyn Sodium
  percentage of Iba1 immunoreactivity overlapping with amyloid: increased overlap
APP/PS1 mice [10]
  decrease of total soluble Aβ levels: over 50%
